Experimental data: US10934297B2, “5-heteroaryl substituted indazole-3-carboxamides and preparation and use thereof” (Samumed, LLC, priority 2018, dated 2021)

Columns and labels:
[1] = system: Wnt activity (Sp5-Luc reporter in SW480 cells); test: Screening assay for Wnt activity: Sp5-Luc reporter gene assay in SW480 colon carcinoma cells; assay type: cell-based, human; settings: Homo sapiens, 36 to 48 hours
Procedure, shortened: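 SW480 colon carcinoma cells stably carrying a lentiviral luciferase reporter driven by an Sp5 promoter with eight TCF/LEF sites, plated at 4,000 cells/well in DMEM with 1% FBS. Compound exposure for 36–48 h at 37 °C, then luminescence read. Signals normalized to DMSO; EC50 from four-parameter nonlinear fit.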

DYRK1A kinase = DYRK1A kinase (Homo sapiens (Human), UniProt Q13627); test: DYRK1A kinase assay (Ser/Thr 18 peptide Z-lyte FRET); assay type: biochemical; settings: read-out: EC50 (method: IC50)
Procedure, shortened: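 This Z-lyte FRET assay reads the coumarin/fluorescein emission ratio. Compounds were incubated with the reaction mixture for 1 h at room temperature, followed by development reagent for a further 1 h at room temperature, in duplicate.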

GSK3β kinase = GSK3β kinase (Homo sapiens (Human), UniProt P49841); test: GSK3β kinase assay (Ser/Thr 09 peptide Z-lyte FRET); assay type: biochemical; settings: read-out: EC50 (method: IC50)
Sequence of GSK3β kinase (P49841 whole entry): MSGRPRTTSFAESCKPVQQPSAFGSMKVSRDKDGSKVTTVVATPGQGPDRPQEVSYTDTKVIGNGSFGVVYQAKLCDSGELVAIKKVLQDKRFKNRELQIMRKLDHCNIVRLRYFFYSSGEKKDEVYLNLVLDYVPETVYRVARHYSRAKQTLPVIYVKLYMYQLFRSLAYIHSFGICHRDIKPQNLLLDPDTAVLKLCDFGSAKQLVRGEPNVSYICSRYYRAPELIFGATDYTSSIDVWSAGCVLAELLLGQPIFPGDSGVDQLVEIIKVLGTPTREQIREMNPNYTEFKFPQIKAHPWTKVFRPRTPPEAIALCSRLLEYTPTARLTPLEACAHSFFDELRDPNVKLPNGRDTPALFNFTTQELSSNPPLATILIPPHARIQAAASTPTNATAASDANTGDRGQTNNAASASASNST
Procedure, shortened: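 Non-radioactive Z-lyte FRET read-out, kinase activity expressed as coumarin/fluorescein emission ratio. Compounds incubated with the reaction mixture one hour at room temperature in duplicate, then development buffer added for another hour. IC50 from non-linear regression of dose-response curves.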

[2] = system: SW480 colon carcinoma cells; test: Cell viability assay (CellTiter-Glo) in SW480 colon carcinoma cells; assay type: cell-based, human; settings: Homo sapiens, 96 h, four days
Procedure, shortened: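 SW480 cells stably carrying an Sp5-promoter luciferase reporter were plated at 2,000 cells/well in DMEM with 1% FBS and treated with compound for four days at 37 °C. Viability was read as ATP luminescence with CellTiter-Glo after about 12 min; DMSO-treated wells served as controls.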

[3] = system: primary human fibroblasts derived from IPF patients (LL29 cells); test: Inhibition of the fibrotic process: αSMA staining in TGF-β1 treated LL29 fibroblasts; assay type: cell-based; settings: Homo sapiens, Fibroblast, 96 h; LL29 cells, TGF-β1 20 ng/mL, 4 days, % αSMA positive cells
Procedure, shortened: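 LL29 fibroblasts from IPF patients, in F12 medium with 1% FBS, treated with TGF-β1 plus compound; TGF-β1 with DMSO as positive control, DMSO alone as negative control. After 4 days' incubation, SYTOX green nucleic acid stain added at 1 μM final, 30 min at room temperature.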

IL-6 = IL-6 inhibition in LPS-stimulated human peripheral blood mononuclear cells (HTRF); assay type: cell-based; settings: Homo sapiens, PBMC; for EC50: huPBMCs, LPS 50 ng/mL, 22 hours, IL-6 HTRF
Procedure, shortened: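 Fresh human PBMCs at 1×10e6 cells/mL in RPMI/1% FBS were stimulated with 50 ng/mL E. coli 0111:B4 LPS added 2 h after compound, then incubated 22 h at 37° C. Secreted IL-6 was measured by HTRF (665/620 nm ratio) after 3 h at room temperature. EC50 was taken from activity normalized to DMSO-treated cells.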

[4] = system: primary human mesenchymal stem cells (hMSCs); test: Tenocyte differentiation assay (SCXA-positive cells) in hMSCs; assay type: cell-based; settings: for EC50: Homo sapiens, Mesenchymal stem cells, 96 h, hMSCs, 4 days, SCXA positive cells; for percent in parentheses under EC50 >100: given for EC50 >100 μM, meaning not defined in this example
Procedure, shortened: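 Passage 3–6 hMSCs were compound-treated, fixed in 4% formaldehyde and stained overnight at 4 °C with anti-SCXA antibody; SCXA-positive cells were counted by imaging. Counts were normalized to the mean of 12 DMSO wells as fold change, averaged over 3 replicate wells per concentration, and curve-fitted for EC50.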

SMILES | EC50 [1] [nM] | IC50 (DYRK1A kinase) [nM] | IC50 (GSK3β kinase) [nM] | EC50 [2] [nM] | EC50 (IL-6) [nM] | EC50 [4] [nM] | percent in parentheses under EC50 >100 [4] | EC50 [3] [nM] | inhibition at 10 µM (IL-6; read-out: percent inhibition at 10 μM) [%]
CN1CCC(Oc2ccc(NC(=O)c3n[nH]c4cc(F)c(-c5ccn(C)n5)cc34)cc2)CC1 [Compound 160, 6-Fluoro-5-(1-methyl-1H-pyrazol-3-yl)-N-(4-((1-methylpiperidin-4-yl)oxy)phenyl)-1H-indazole-3-carboxamide] | 3560 | 61 | 3260 | 2600 | > 10000 | > 100000 | (18.6%) | 3240 | 27.9
Cc1nc(-c2ccc3[nH]nc(C(=O)Nc4ccc(OC5CCN(C)CC5)cc4)c3c2)cs1 [Compound 162, N-(4-((1-Methylpiperidin-4-yl)oxy)phenyl)-5-(2-methylthiazol-4-yl)-1H-indazole-3-carboxamide] | > 10000 | 141 | 5060 | 4600 | 7690 | > 100000 | (12.7%) | 2640 | –
Cc1ncc(-c2cc3c(C(=O)Nc4ccc(OC5CCN(C)CC5)cc4)n[nH]c3cc2F)s1 [Compound 163, 6-Fluoro-N-(4-((1-methylpiperidin-4-yl)oxy)phenyl)-5-(2-methylthiazol-5-yl)-1H-indazole-3-carboxamide] | 1530 | 4 | 94 | 331 | 8830 | > 100000 | (40.7%) | 1000 | –

Compounds with a lower EC50 [1], results first:

EC50 [1] [nM] | IC50 (DYRK1A kinase) [nM] | IC50 (GSK3β kinase) [nM] | EC50 [2] [nM] | EC50 (IL-6) [nM] | EC50 [4] [nM] | percent in parentheses under EC50 >100 [4] | SMILES | EC50 [3] [nM] | inhibition at 10 µM (IL-6; read-out: percent inhibition at 10 μM) [%]
680 | 23 | 548 | 810 | 2820 | > 100000 | (15.5%) | CN1CCC(n2cc(-c3ccc4[nH]nc(C(=O)Nc5ccc(F)cc5)c4c3)cn2)CC1 [Compound 159, N-(4-Fluorophenyl)-5-(1-(1-methylpiperidin-4-yl)-1H-pyrazol-4-yl)-1H-indazole-3-carboxamide] | 1370 | –
642 | 5 | 120 | 833 | 3400 | > 100000 | (31.8%) | Cc1ncc(-c2ccc3[nH]nc(C(=O)Nc4ccc(OC5CCN(C)CC5)cc4)c3c2)n1C [Compound 161, 5-(1,2-Dimethyl-1H-imidazol-5-yl)-N-(4-((1-methylpiperidin-4-yl)oxy)phenyl)-1H-indazole-3-carboxamide] | 3720 | –
1380 | 3 | 88 | 268 | 1330 | > 100000 | (33.1%) | Cc1cc(-c2ccc3[nH]nc(C(=O)Nc4ccc(OC5CCN(C)CC5)cc4)c3c2)sn1 [Compound 164, 5-(3-Methylisothiazol-5-yl)-N-(4-((1-methylpiperidin-4-yl)oxy)phenyl)-1H-indazole-3-carboxamide] | 305 | –
